Assay results as given in PMC7878787 (Scientific Reports, 2021).
Like-named read-outs stand apart in the source and are kept apart here.

Assays:
PC-3 cells = experiment: Cellular processing (membrane-bound vs internalized activity); format: cell-based, human; conditions: 2 nM, continuous incubation 24 h, 37 °C, n = 3
Procedure: At pre-determined time points (1 h, 2 h, 4 h, 24 h) cells were incubated with 0.2 M glycine buffer (with 0.15 M NaCl, 4 M Urea, pH 2) for 5 min on ice to collect the membrane-bound activity. Thereafter, cells were incubated at 37 °C for 30 min with 1 M NaOH and collected. Activity content in those samples was considered internalized activity.

GRPR = target: T1, GRPR (Mus musculus, UniProt P21729); experiment: In vivo specificity test (co-injection of non-labeled peptide); set-up: species or system Balb/c nu/nu mice; conditions: 3 h pi, co-injection of 10 nmol non-labeled NOTA-PEG2-RM26, p < 0.002
T1 construct: Mice with GRPR-expressing PC-3 xenografts (implanted 21 d before the experiment) were used for all in vivo studies; from tissue; host or cells: PC-3 xenograft tumors in female Balb/c nu/nu mice
T1 sequence (P21729 whole entry): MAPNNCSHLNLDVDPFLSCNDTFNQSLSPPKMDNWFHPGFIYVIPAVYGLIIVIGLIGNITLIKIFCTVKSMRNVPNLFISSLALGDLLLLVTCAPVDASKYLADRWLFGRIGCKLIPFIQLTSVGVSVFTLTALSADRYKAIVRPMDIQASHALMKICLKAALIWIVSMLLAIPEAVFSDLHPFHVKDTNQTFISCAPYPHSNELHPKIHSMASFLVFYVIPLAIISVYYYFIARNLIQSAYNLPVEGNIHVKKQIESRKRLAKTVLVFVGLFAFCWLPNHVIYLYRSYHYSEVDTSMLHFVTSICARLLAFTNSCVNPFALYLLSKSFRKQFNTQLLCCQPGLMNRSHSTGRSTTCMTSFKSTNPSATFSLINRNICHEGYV
Procedure: For the in vivo specificity test, mice in the blocking group were co-injected with 10 nmol of non-labeled NOTA-PEG2-RM26 and sacrificed 3 h pi and samples were collected according to the protocol described above.

[1] = Biodistribution in mice bearing PC-3 xenografts; format: in vivo, Balb/c nu/nu mice; conditions: female, Balb/c nu/nu, mouse, iv, total radioactivity, 3 h pi, 40–50 pmol iv, female Balb/c nu/nu mice with PC-3 xenografts, average ± SD, n = 3–4
Procedure: (§1) Mice were sacrificed 3 h and 22 h pi by intraperitoneal injection of a lethal dose of Ketalar-Rompun solution (10 mg/mL Ketaminol (Intervet) and 1 mg/mL Rompun (Bayer); 20 μL solution/gram of body weight). Tumors were collected as well as samples of blood, lung, liver, spleen, pancreas, stomach, small intestine, kidneys, muscle, and bone. Gastrointestinal (GI) tract and carcass were also collected. Samples were weighed, and measured for activity content in the automated gamma counter. Corrections for background, spill-over and decay were performed for all measurements.
(§2) Biodistribution of [^68Ga]Ga-NOTA-PEG2-RM26 3 h pi was included for comparison. Mice were therefore injected with 40–50 pmol (250 kBq) ^68Ga-NOTA-PEG2-RM26, euthanized 3 h pi and samples were collected according to the protocol described above.

[2] = Analysis of blood metabolites (radio-HPLC of plasma); format: in vivo; conditions: 5 min pi, NMRI mice; for radiometal associated with intact peptide in blood plasma: 1.5 nmol (6.75–7.3 MBq)
Procedure: NMRI Mice were injected with 1.5 nmol (6.75–7.3 MBq) [^68Ga]Ga-NOTA-PEG2-RM26 and sacrificed 5 min pi by cervical dislocation. Immediately after blood was collected by heart puncture into a pre-chilled heparinized Eppendorf tube. Blood samples were centrifuged (10000RCF, 10 min at 4 °C), plasma was collected and mixed with equal amount of ice cold acetonitrile. The mixture was centrifuged (15,000 RCF, 10 min, 4 °C), the supernatant was collected and sterile filtered with a 0.2 µm PTFE syringe filter. The filtrate was analyzed on HPLC according to the method described above.

PC-3 xenografts = experiment: Biodistribution in mice bearing PC-3 xenografts; format: in vivo, Balb/c nu/nu mice
Procedure: as §1, §2

CC(C)C[C@H](NC(=O)C[C@H](O)[C@H](CC(C)C)NC(=O)[C@H](Cc1c[nH]cn1)NC(=O)CNC(=O)[C@@H](NC(=O)[C@H](C)NC(=O)[C@H](Cc1c[nH]c2ccccc12)NC(=O)[C@H](CCC(N)=O)NC(=O)[C@@H](Cc1ccccc1)NC(=O)COCCOCCNC(=O)CN1CCN(CC(=O)O)CCN(CC(=O)O)CC1)C(C)C)C(N)=O [[^66Ga]Ga-NOTA-PEG2-RM26, metal not drawn]
fraction of internalized activity, of cell-associated activity (PC-3 cells): 17% | uptake in pancreas, blocked vs non-blocked (GRPR): significant decrease | tissue uptake at 3 h ([1]; bone, read-out: Uptake, Bone): 0.5 ± 0.3 %ID/g | tissue uptake at 3 h ([1]; kidney, read-out: Uptake, Kidney): 1.7 ± 0.4 %ID/g | tissue uptake at 3 h ([1]; liver, read-out: Uptake, Liver): 0.28 ± 0.06 %ID/g | tissue uptake at 3 h ([1]; lung, read-out: Uptake, Lung): 0.5 ± 0.4 %ID/g | tissue uptake at 3 h ([1]; pancreas, read-out: Uptake, Pancreas): 3.4 ± 0.7 %ID/g | tissue uptake at 3 h ([1]; stomach, read-out: Uptake, Stomach): 1.9 ± 0.4 %ID/g | tissue uptake at 3 h ([1]; tumor (PC-3 xenograft), read-out: Uptake, Tumor): 14 ± 1 %ID/g | tissue uptake at 3 h ([1]; whole blood, read-out: Uptake, Blood): 0.15 ± 0.06 %ID/g

CC(C)C[C@H](NC(=O)C[C@H](O)[C@H](CC(C)C)NC(=O)[C@H](Cc1c[nH]cn1)NC(=O)CNC(=O)[C@@H](NC(=O)[C@H](C)NC(=O)[C@H](Cc1c[nH]c2ccccc12)NC(=O)[C@H](CCC(N)=O)NC(=O)[C@@H](Cc1ccccc1)NC(=O)COCCOCCNC(=O)CN1CCN(CC(=O)O)CCN(CC(=O)O)CC1)C(C)C)C(N)=O [[^68Ga]Ga-NOTA-PEG2-RM26, metal not drawn]
free gallium, share of activity in blood plasma [2]: 6% | radiometal associated with intact peptide in blood plasma [2]: up to 57% | radiometal associated with intact peptide in blood plasma ([2]; listed as gallium labeled NOTA-PEG2-RM26): up to 60%

CC(C)C[C@H](NC(=O)C[C@H](O)[C@H](CC(C)C)NC(=O)[C@H](Cc1c[nH]cn1)NC(=O)CNC(=O)[C@@H](NC(=O)[C@H](C)NC(=O)[C@H](Cc1c[nH]c2ccccc12)NC(=O)[C@H](CCC(N)=O)NC(=O)[C@@H](Cc1ccccc1)NC(=O)COCCOCCNC(=O)CN1CCN(CC(=O)O)CCN(CC(=O)O)CC1)C(C)C)C(N)=O [[^66Ga]Ga-NOTA-PEG2-RM26] [metal not drawn]
change of uptake in bone during the observation period (PC-3 xenografts; 3 to 22 h pi): increased | activity retained in tumors from 3 to 22 h pi (PC-3 xenografts; PC-3 xenografts): approximately 50% | change of uptake in GRPR-expressing pancreas from 3 to 22 h pi (PC-3 xenografts; p < 0.004): decreased significantly
